Target: Bromodomain testis-specific protein (Homo sapiens, UniProt Q58F21)
Experiment: Binding affinity to human partial length BRDT bromodomain 1 (N21 to E137 residues) expressed in bacterial expression system by BROMOscan assay

Kd: 6 to 19 nM
Structure (SMILES): Cc1sc2c(c1C)C(c1ccc(Cl)cc1)=N[C@@H](CC(=O)NCCCCNC(=O)COc1cccc3c1C(=O)N(C1CCC(=O)NC1=O)C3=O)c1nnc(C)n1-2 (stereo partly specified)

Reference: ChEMBL document CHEMBL4627273, “BET proteins: Investigating BRDT as a potential target for male contraception” (Bioorg Med Chem Lett, 2020)
